Measured values reported in ChEMBL document CHEMBL1201862, “PubChem BioAssay data set” (2004).
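Tested at 5 concentrations; 48 h exposure; 96-well plates; endpoints linearly interpolated, else capped at highest concentration. GI50 marks 50% less growth.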 Active and inactive are the calls of the source. Cut-off read from the data, not from the text of the source: active = GI50 up to about 1.1 µM and inactive = higher.

What was measured:
Assay in all cases: inhibition of tumour cell growth, NCI panel, 48 h
MOLT-4 = system: MOLT-4
IGROV-1 = system: IGROV-1
K562 = system: K562
PC-3 = system: PC-3
MDA-MB-231 = system: MDA-MB-231
786-0 = system: 786-0
M14 = system: M14
HCC 2998 = system: HCC 2998
UACC-257 = system: UACC-257
SK-OV-3 = system: SK-OV-3
U-251 = system: U-251
NCI/ADR-RES = system: NCI/ADR-RES
RXF 393 = system: RXF 393
T47D = system: T47D
NCI-H522 = system: NCI-H522
SF-268 = system: SF-268
SK-MEL-2 = system: SK-MEL-2
LOX IMVI = system: LOX IMVI
TK-10 = system: TK-10

| SMILES | GI50 (MOLT-4) | GI50 (IGROV-1) | GI50 (K562) | GI50 (PC-3) | GI50 (MDA-MB-231) | GI50 (786-0) | GI50 (M14) | GI50 (HCC 2998) | GI50 (UACC-257) | GI50 (SK-OV-3) | GI50 (U-251) | GI50 (NCI/ADR-RES) | GI50 (RXF 393) | GI50 (T47D) | GI50 (NCI-H522) | GI50 (SF-268) | GI50 (SK-MEL-2) | GI50 (LOX IMVI) | GI50 (TK-10) |
| --- | --- | --- | --- | --- | --- | --- | --- | --- | --- | --- | --- | --- | --- | --- | --- | --- | --- | --- | --- |
| Cc1cn(C2CC(SCCO)C(CO)O2)c(=O)[nH]c1=O (stereo not drawn) | > 100 µM (inactive) | > 100 µM (inactive) | > 100 µM (inactive) | > 100 µM (inactive) | > 100 µM (inactive) | > 100 µM (inactive) | > 100 µM (inactive) | > 100 µM (inactive) | > 100 µM (inactive) | > 100 µM (inactive) | > 100 µM (inactive) | > 100 µM (inactive) | > 100 µM (inactive) | > 100 µM (inactive) | > 100 µM (inactive) | > 100 µM (inactive) | > 100 µM (inactive) | – | – |
| COc1ccc2c(c1OC)C(C(Cl)(Cl)Cl)N1CCc3cc4c(cc3C1=C2)OCO4 (stereo not drawn) | 16 µM (inactive) | 25.5 µM (inactive) | – | 24.7 µM (inactive) | 23.5 µM (inactive) | 15.2 µM (inactive) | 28.4 µM (inactive) | 10.8 µM (inactive) | 7.16 µM (inactive) | 23.9 µM (inactive) | 3.69 µM (inactive) | 44.6 µM (inactive) | – | 10.8 µM (inactive) | 13.9 µM (inactive) | 3.41 µM (inactive) | 17.2 µM (inactive) | 32.7 µM (inactive) | 27 µM (inactive) |
| COc1cc2c3c(c1Oc1nnnn1-c1ccccc1)-c1c(ccc4c1OCO4)C[C@H]3N(C)CC2 | 35.7 µM (inactive) | 41.6 µM (inactive) | 29.6 µM (inactive) | 38.6 µM (inactive) | 41.8 µM (inactive) | 17.5 µM (inactive) | 18.7 µM (inactive) | 20.7 µM (inactive) | 20.5 µM (inactive) | 72.9 µM (inactive) | 69 µM (inactive) | 35.7 µM (inactive) | – | 33.7 µM (inactive) | 36.1 µM (inactive) | 48.9 µM (inactive) | 71.9 µM (inactive) | 29 µM (inactive) | 75.5 µM (inactive) |
| CC(C)CCCC(C)[C@H]1CC[C@H]2n3c(nnc3-c3ccccc3)CCC[C@]12C (stereo partly drawn) | 3.96 µM (inactive) | 5.74 µM (inactive) | 3.8 µM (inactive) | 9.33 µM (inactive) | 15 µM (inactive) | 14.6 µM (inactive) | 12.8 µM (inactive) | < 0.01 µM (active) | 13.3 µM (inactive) | 13.4 µM (inactive) | 7.19 µM (inactive) | 9.93 µM (inactive) | 11.5 µM (inactive) | 11.7 µM (inactive) | – | 12.7 µM (inactive) | 12.4 µM (inactive) | 1.86 µM (inactive) | 21.5 µM (inactive) |
| OCCCc1cc(O)c2c(c1)C(CO)C(c1ccc(O)c(O)c1)O2 (stereo not drawn) | > 100 µM (inactive) | > 100 µM (inactive) | > 100 µM (inactive) | > 100 µM (inactive) | > 100 µM (inactive) | > 100 µM (inactive) | 76.6 µM (inactive) | > 100 µM (inactive) | > 100 µM (inactive) | > 100 µM (inactive) | > 100 µM (inactive) | > 100 µM (inactive) | – | 80.2 µM (inactive) | 48.8 µM (inactive) | > 100 µM (inactive) | > 100 µM (inactive) | > 100 µM (inactive) | > 100 µM (inactive) |
| COC1CC(OC2C(C)OC(OC3C(C)OC(OC4C(C)OC(O[C@H]5CC[C@@]6(C)C(=CC[C@]7(O)[C@@H]6C[C@@H](OC(C)=O)[C@@]6(C)[C@]7(O)CC[C@@]6(O)C(C)=O)C5)CC4OC)CC3OC)CC2OC)OC(C)C1O (stereo partly drawn) | > 25 µM (inactive) | > 25 µM (inactive) | > 25 µM (inactive) | > 25 µM (inactive) | > 25 µM (inactive) | > 25 µM (inactive) | > 25 µM (inactive) | > 25 µM (inactive) | > 25 µM (inactive) | > 25 µM (inactive) | > 25 µM (inactive) | > 25 µM (inactive) | – | > 25 µM (inactive) | > 25 µM (inactive) | > 25 µM (inactive) | > 25 µM (inactive) | > 25 µM (inactive) | > 25 µM (inactive) |
| Cc1cn(CCCCCOC(=O)NC(CCCNC(N)=O)C(=O)O)c(=O)[nH]c1=O (stereo not drawn) | > 100 µM (inactive) | 65.3 µM (inactive) | > 100 µM (inactive) | > 100 µM (inactive) | > 100 µM (inactive) | > 100 µM (inactive) | > 100 µM (inactive) | > 100 µM (inactive) | > 100 µM (inactive) | > 100 µM (inactive) | > 100 µM (inactive) | > 100 µM (inactive) | > 100 µM (inactive) | > 100 µM (inactive) | – | > 100 µM (inactive) | > 100 µM (inactive) | > 100 µM (inactive) | > 100 µM (inactive) |
| O=C(Nc1cccc(C(F)(F)F)c1)O/N=C(/Cl)CCl | 28.2 µM (inactive) | 62.4 µM (inactive) | 29.6 µM (inactive) | 96.6 µM (inactive) | 17.1 µM (inactive) | 40.5 µM (inactive) | > 100 µM (inactive) | > 100 µM (inactive) | > 100 µM (inactive) | > 100 µM (inactive) | 39.5 µM (inactive) | > 100 µM (inactive) | – | 53.5 µM (inactive) | – | > 100 µM (inactive) | 67.6 µM (inactive) | 19 µM (inactive) | > 100 µM (inactive) |
| CC1=NN(c2nc(N)nc(C(C)Cl)n2)C(C)(C)C1 (stereo not drawn) | > 100 µM (inactive) | > 100 µM (inactive) | 85.9 µM (inactive) | > 100 µM (inactive) | > 100 µM (inactive) | > 100 µM (inactive) | > 100 µM (inactive) | > 100 µM (inactive) | > 100 µM (inactive) | > 100 µM (inactive) | > 100 µM (inactive) | > 100 µM (inactive) | > 100 µM (inactive) | > 100 µM (inactive) | – | > 100 µM (inactive) | > 100 µM (inactive) | > 100 µM (inactive) | > 100 µM (inactive) |
| O=S(=O)(/N=S(/Nc1ccccc1)C(F)(F)Cl)c1ccccc1 (stereo not drawn) | > 100 µM (inactive) | > 100 µM (inactive) | > 100 µM (inactive) | > 100 µM (inactive) | > 100 µM (inactive) | > 100 µM (inactive) | > 100 µM (inactive) | – | > 100 µM (inactive) | > 100 µM (inactive) | > 100 µM (inactive) | > 100 µM (inactive) | > 100 µM (inactive) | > 100 µM (inactive) | – | > 100 µM (inactive) | > 100 µM (inactive) | > 100 µM (inactive) | > 100 µM (inactive) |
| O=c1[nH]c(=S)c2cc3c(=S)[nH]c(=O)n(CCC(c4ccccc4)(c4ccccc4)c4ccccc4)c3nc2n1CCC(c1ccccc1)(c1ccccc1)c1ccccc1 | 15.4 µM (inactive) | – | 24.8 µM (inactive) | > 100 µM (inactive) | 59.4 µM (inactive) | > 100 µM (inactive) | > 100 µM (inactive) | > 100 µM (inactive) | > 100 µM (inactive) | > 100 µM (inactive) | > 100 µM (inactive) | > 100 µM (inactive) | – | > 100 µM (inactive) | > 100 µM (inactive) | > 100 µM (inactive) | > 100 µM (inactive) | – | > 100 µM (inactive) |
| N[C@H](C(=O)O)[C@@H]1CC(Br)=NO1 | 59.3 µM (inactive) | – | – | > 100 µM (inactive) | > 100 µM (inactive) | 99.8 µM (inactive) | 53.5 µM (inactive) | 59.6 µM (inactive) | > 100 µM (inactive) | 69.5 µM (inactive) | > 100 µM (inactive) | > 100 µM (inactive) | > 100 µM (inactive) | > 100 µM (inactive) | 77.4 µM (inactive) | > 100 µM (inactive) | > 100 µM (inactive) | – | 47.1 µM (inactive) |
| COc1ccc(S(=O)(=O)N2C(=O)CCC2C(=O)NC(N)=O)cc1 (stereo not drawn) | > 100 µM (inactive) | > 100 µM (inactive) | > 100 µM (inactive) | > 100 µM (inactive) | > 100 µM (inactive) | > 100 µM (inactive) | > 100 µM (inactive) | – | > 100 µM (inactive) | > 100 µM (inactive) | > 100 µM (inactive) | > 100 µM (inactive) | – | > 100 µM (inactive) | > 100 µM (inactive) | – | > 100 µM (inactive) | > 100 µM (inactive) | > 100 µM (inactive) |
| O=C1CCN(CCC(F)(F)C(F)(F)C(F)(F)C(F)(F)C(F)(F)C(F)(F)F)C(=S)N1CCC(F)(F)C(F)(F)C(F)(F)C(F)(F)C(F)(F)C(F)(F)F | > 100 µM (inactive) | > 100 µM (inactive) | > 100 µM (inactive) | > 100 µM (inactive) | > 100 µM (inactive) | > 100 µM (inactive) | > 100 µM (inactive) | > 100 µM (inactive) | > 100 µM (inactive) | > 100 µM (inactive) | > 100 µM (inactive) | – | > 100 µM (inactive) | > 100 µM (inactive) | > 100 µM (inactive) | > 100 µM (inactive) | – | – | > 100 µM (inactive) |
| CC1=C(C)C(=O)OC(C(C)(O)C2(O)CC3OC34C3CC(O)C56OC5C=CC(=O)C6(C)C3CCC42C)C1 (stereo not drawn) | 0.586 µM (active) | 1.72 µM (inactive) | 0.927 µM (active) | 2.87 µM (inactive) | 1.78 µM (inactive) | 1.51 µM (inactive) | 1.27 µM (inactive) | 1.26 µM (inactive) | 1.6 µM (inactive) | 3.9 µM (inactive) | 1.76 µM (inactive) | – | 2.4 µM (inactive) | 2.99 µM (inactive) | 0.361 µM (active) | 1.64 µM (inactive) | 2.59 µM (inactive) | 1.79 µM (inactive) | 1.5 µM (inactive) |
